Test results as given in patent US7405205B2, “Antitumor antisense sequences directed against R1 and R2 components of ribonucleotide reductase” (Lorus Therapeutics Inc., priority 1996, dated 2008).
Strand notation (5' to 3'): a small letter for the sugar, then the base; units joined by * are phosphorothioate-linked, units joined directly phosphodiester-linked; [ ] holds rarer units or linkages, { } end groups; capitals alone tell only the bases. d = 2'-deoxy (DNA)

What was measured:
Assay type in all cases: cell-based, human
[1] = test system: T24 bladder cell carcinoma; test: Relative colony forming efficiency after antisense treatment (Table 13); conditions: 0.2 μM antisense oligodeoxyribonucleotide phosphorothioate; T24 cells; averages of 2-8 determinations
[2] = test system: HCT116 colon cell carcinoma; test: as above; conditions: 0.2 μM antisense oligodeoxyribonucleotide phosphorothioate; HCT116 cells; averages of 2-8 determinations
A549 lung cell carcinoma = test: as above; conditions: 0.2 μM antisense oligodeoxyribonucleotide phosphorothioate; A549 cells; averages of 2-8 determinations
[3] = test system: MIA PaCa-2 pancreatic cell carcinoma; test: as above; conditions: 0.2 μM antisense oligodeoxyribonucleotide phosphorothioate; MIA PaCa-2 cells; averages of 2-8 determinations
[4] = test system: PC-3 prostrate cell adenocarcinoma; test: as above; conditions: 0.2 μM antisense oligodeoxyribonucleotide phosphorothioate; PC-3 cells; averages of 2-8 determinations
[5] = test system: HepG2 hepatocellular carcinoma; test: Relative colony forming efficiency after antisense treatment (Table 13, FIG. 12); conditions: 0.2 μM antisense oligodeoxyribonucleotide phosphorothioate; HepG2 cells; averages of 2-8 determinations

| Sequence | Reduced relative colony forming efficiency, expressed as % inhibition, T24 [1] [%] | Reduced relative colony forming efficiency, expressed as % inhibition, HCT116 [2] [%] | Reduced relative colony forming efficiency, expressed as % inhibition, A549 (A549 lung cell carcinoma) [%] | Reduced relative colony forming efficiency, expressed as % inhibition, MIA PaCa-2 [3] [%] | Reduced relative colony forming efficiency, expressed as % inhibition, PC-3 [4] [%] | Reduced relative colony forming efficiency, expressed as % inhibition, HepG2 [5] [%] |
| --- | --- | --- | --- | --- | --- | --- |
| AAGCGGCGGGGGTTTTCTCT (dA*dA*dG*dC*dG*dG*dC*dG*dG*dG*dG*dG*dT*dT*dT*dT*dC*dT*dC*dT; antisense) [AS-II-414-20] | 11.67 | 19.1 | 12.44 | 36.11 | 60.94 | 30.89 |
| ACTGCCATTGTCACTGCTAT (DNA, all phosphorothioate, methylation of C not given here) [AS-II-1581-20] | 68.22 | 66.85 | 90.55 | 24.07 | 85.83 | 93.07 |
| AGCCTCTGCCTTCTTATACA (dA*dG*dC*dC*dT*dC*dT*dG*dC*dC*dT*dT*dC*dT*dT*dA*dT*dA*dC*dA; antisense) [AS-II-472-20] | 69.26 | 67.23 | 96.99 | 97.13 | 90.7 | – |
| ATCCAGCGCAAGGCCCAGTC (antisense; DNA, all phosphorothioate, methylation of C not given here) [AS-II-816-20] | 73.91 | 88.22 | 78.4 | 93.21 | 94.08 | 93.08 |
| ATGGTACTCGATGGGGAAGA (dA*dT*dG*dG*dT*dA*dC*dT*dC*dG*dA*dT*dG*dG*dG*dG*dA*dA*dG*dA) [AS-II-439-20] | 67.84 | 64.7 | 76.46 | 92.69 | 77.66 | 73.04 |
| CAAATGGGTTCTCTACTCTG (DNA, all phosphorothioate, methylation of C not given here) [AS-II-1217-20] | 66.36 | 68.68 | 91.49 | 34.85 | 81.03 | – |
| CCAGCACTATAAACAGACAG (DNA, all phosphorothioate, methylation of C not given here) [AS-II-1517-20] | – | – | – | – | 91.75 | – |
| CCGTGGGCTCCTGGAAGATC (dC*dC*dG*dT*dG*dG*dG*dC*dT*dC*dC*dT*dG*dG*dA*dA*dG*dA*dT*dC; antisense) [AS-II-344-20] | – | – | – | – | 80.06 | – |
| CCTCTGATACTCGCCTACTC (DNA, all phosphorothioate, methylation of C not given here) [AS-II-1288-20] | 56.75 | 66.43 | 61.04 | 80.71 | 93.55 | 80.41 |
| CGGCTCATCCTCCACGC (dC*dG*dG*dC*dT*dC*dA*dT*dC*dC*dT*dC*dC*dA*dC*dG*dC) [AS-II-391-17] | – | – | – | 26.35 | 93.25 | 60.64 |
| GAAACCAAATAAATCAAGCT (DNA, all phosphorothioate, methylation of C not given here) [AS-II-1790-20] | – | – | – | – | 87.86 | – |
| GAAGCCATAGAAACAGCGGG (antisense; DNA, all phosphorothioate, methylation of C not given here) [AS-II-667-20] | 70.48 | 76.9 | 70.3 | 85.26 | 91.8 | 88.23 |
| GAAGTCAGCATCCAAGGTAA (DNA, all phosphorothioate, methylation of C not given here) [AS-II-1342-20] | 59.76 | 73.74 | 65.67 | 73.77 | 89.84 | 82.2 |
| GACGGCTGGGACAGGGTGCA (antisense dG*dA*dC*dG*dG*dC*dT*dG*dG*dG*dA*dC*dA*dG*dG*dG*dT*dG*dC*dA) [AS-II-134-20] | – | – | – | – | 77.51 | – |
| GCATCCAAGGTAAAAGAATT (DNA, all phosphorothioate, methylation of C not given here) [AS-II-1335-20] | 59.95 | 67.87 | 78.59 | 78.78 | 90.04 | 72.98 |
| GCGGCGGGGGTTTTCTCTCA (dG*dC*dG*dG*dC*dG*dG*dG*dG*dG*dT*dT*dT*dT*dC*dT*dC*dT*dC*dA; antisense) [AS-II-412-20] | 22.2 | 27.98 | 43.78 | 55.25 | 73.96 | 26.23 |
| TCAGCATCCAAGGTAAAAGA (DNA, all phosphorothioate, methylation of C not given here) [AS-II-1338-20] | 63.16 | 74.73 | 63.93 | 79.17 | 93.75 | 80.41 |
| TCCTCGCGGTCTTGCTGGCC (dT*dC*dC*dT*dC*dG*dC*dG*dG*dT*dC*dT*dT*dG*dC*dT*dG*dG*dC*dC; antisense) [AS-II-323-20] | – | 55.8 | 91.24 | 97.55 | 79.76 | 96.39 |
| TGGGACAGGGTGCACGGGCG (antisense dT*dG*dG*dG*dA*dC*dA*dG*dG*dG*dT*dG*dC*dA*dC*dG*dG*dG*dC*dG) [AS-II-130-20] | 51.94 | 57.98 | 86.48 | 82.11 | 74.66 | 94.28 |
| TTCTGGCAAAAGGTGATACT (DNA, all phosphorothioate, methylation of C not given here) [AS-II-1538-20] | 67.29 | 51.28 | 90.34 | 50.62 | 84.71 | 96.84 |
| TTGTGTACCAGGTGTTTGAA (DNA, all phosphorothioate, methylation of C not given here) [AS-II-1023-20] | 58.26 | – | 34.52 | 42.82 | 87.63 | – |
